In patent US20260184766A1 (priority 2022, published 2026):

Assays:
biotinylated RBD = biotinylated RBD (Severe acute respiratory syndrome coronavirus 2, UniProt P0DTC2)
[1] = test system: pseudotyped virus carrying SARS-CoV-2 (Wuhan-Hu-1) wild-type (WT) spike protein; assay type: cell-based; conditions: for EC50: read-out: Virus Neutralization Pseudovirus (nM) Wild-type
[2] = molecular target: biotinylated RBD (Wuhan-Hu-1) (Severe acute respiratory syndrome coronavirus 2, UniProt P0DTC2)
[3] = test system: pseudotyped virus carrying S protein of a SARS-CoV-2 delta lineage virus; assay type: cell-based; conditions: read-out: Virus Neutralization Pseudovirus (nM) Delta

Sequence | binding of coated CDR3-knob to biotinylated RBD, in words [2] | EC50 [3] [nM] | EC50 [1] [nM] | also measured
EGDKTCPDGYEHTCGCIGGCGCKRSACIGALCCQASLGGWLSDGETYTYEF [G3 Knob] | showed binding |  |  | binding to RBD after heat and SDS treatment (biotinylated RBD): maintained binding; neutralization potency of CDR3-knob only antibody, in words [1]: subnanomolar potency; RBD binding relative to reference anti-spike protein antibody CR3022 [2]: increased
GGSCPDGYEHTCGCIGGCGCKRSACIGALCCQASLGGWLSD [G3 NTRUNC5] | did not correlate with any reduction in binding activity |  |  | 
GGSEGDKTCPDGYEHTCGCIGGCGCKRSACIGALCCQASLGGW [G3 TRUNC3B] | reduced binding |  |  | 
GGSEGDKTCPDGYEHTCGCIGGCGCKRSACIGALCCQASLGGWL [G3 TRUNC3A] | reduced binding |  |  | 
HWTCPDGYEHTCGCIGGCGCKRSACIGALCCQASLGGWLSDSF [2G3 knob HWSF] |  | 21.2 ± 22.9 | 0.15 ± 0.03 | 
ISTCPDGYEHTCGCIGGCGCKRSACIGALCCQASLGGWLSDTV [2G3 knob ISTV] |  | 56 ± 7.02 | 0.12 ± 0.03 | 
TCPDGYEHTCGCIGGCGCKRSACIGALCCQASLGGWLSD [2G3 Knob] |  | 71.3 ± 37.2 | 1.3 ± 0.3 | 
